How the values were obtained:
LRRK2 kinase = target: T1, LRRK2 kinase (Homo sapiens, UniProt Q5S007); test: Biochemical assay for LRRK2 (coupled pyruvate kinase/lactate dehydrogenase assay); conditions: 26.4 nM LRRK2, 1 mM ATP; read-out: LRRK2 (inhibition of LRRK2 kinase activity, IC50)
T1 construct: (residues 970-2528; ID NO; 3); purchased Thermo Fisher
Procedure: Biochemical Assay for LRRK2 (SEQ. ID NO. 3)
Activity of LRRK2 kinase was determined spectroscopically using a coupled pyruvate kinase/lactate dehydrogenase assay that continuously monitors the ATP hydrolysis-dependent oxidation of NADH (e.g., Schindler et al. Science (2000) 289: 1938-1942). Assays were conducted in 384-well plates (100 μL final volume) using 26.4 nM LRRK2 (Thermo Fisher), 0.1 mM peptide substrate (RLGRDKYKTLRQIRQ), 1.5 units pyruvate kinase, 2.1 units lactate dehydrogenase, 1 mM phosphoenol pyruvate, 0.28 mM NADH and 1 mM ATP in assay buffer (100 mM Tris, pH 7.5, 15 mM MgCl2, 0.5 mM DTT, 0.004% (w/v) BSA, and 0.004% Triton X-100). Inhibition of LRRK2 was measured by adding serial diluted test compound (final assay concentration of 1% DMSO). A decrease in absorption at 340 nm was monitored continuously for 6 h at 30° C. on a multi-mode microplate reader (BioTek). The reaction rate was calculated using the 2-3 h time frame. The reaction rate at each concentration of compound was converted to percent inhibition using controls (i.e., reaction with no test compound and reaction with a known inhibitor) and IC50 values were calculated using software routines in Prism (GraphPad software).

[1] = tested on: ULK kinase substrate ATG13 (pS318-ATG13) in MiaPaCa-2 cells; test: pATG13 levels of mutant KRas MiaPaCa-2 cells after treatment with ULK inhibitors in combination with trametinib (ELISA); format: cell-based, human
Method in brief: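 MiaPaCa-2 cells grown overnight, then dosed with test compound titration plus trametinib (final 250 nM) or DMSO, overnight at 37° C. Lysate pS318-ATG13 measured by sandwich ELISA (total ATG13 capture, biotinylated pS318 detection, HRP/TMB, A450 minus A540); % phosphorylation vs control wells fitted to IC50.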

T1 sequence (Q5S007 with tags, fused parts or gaps): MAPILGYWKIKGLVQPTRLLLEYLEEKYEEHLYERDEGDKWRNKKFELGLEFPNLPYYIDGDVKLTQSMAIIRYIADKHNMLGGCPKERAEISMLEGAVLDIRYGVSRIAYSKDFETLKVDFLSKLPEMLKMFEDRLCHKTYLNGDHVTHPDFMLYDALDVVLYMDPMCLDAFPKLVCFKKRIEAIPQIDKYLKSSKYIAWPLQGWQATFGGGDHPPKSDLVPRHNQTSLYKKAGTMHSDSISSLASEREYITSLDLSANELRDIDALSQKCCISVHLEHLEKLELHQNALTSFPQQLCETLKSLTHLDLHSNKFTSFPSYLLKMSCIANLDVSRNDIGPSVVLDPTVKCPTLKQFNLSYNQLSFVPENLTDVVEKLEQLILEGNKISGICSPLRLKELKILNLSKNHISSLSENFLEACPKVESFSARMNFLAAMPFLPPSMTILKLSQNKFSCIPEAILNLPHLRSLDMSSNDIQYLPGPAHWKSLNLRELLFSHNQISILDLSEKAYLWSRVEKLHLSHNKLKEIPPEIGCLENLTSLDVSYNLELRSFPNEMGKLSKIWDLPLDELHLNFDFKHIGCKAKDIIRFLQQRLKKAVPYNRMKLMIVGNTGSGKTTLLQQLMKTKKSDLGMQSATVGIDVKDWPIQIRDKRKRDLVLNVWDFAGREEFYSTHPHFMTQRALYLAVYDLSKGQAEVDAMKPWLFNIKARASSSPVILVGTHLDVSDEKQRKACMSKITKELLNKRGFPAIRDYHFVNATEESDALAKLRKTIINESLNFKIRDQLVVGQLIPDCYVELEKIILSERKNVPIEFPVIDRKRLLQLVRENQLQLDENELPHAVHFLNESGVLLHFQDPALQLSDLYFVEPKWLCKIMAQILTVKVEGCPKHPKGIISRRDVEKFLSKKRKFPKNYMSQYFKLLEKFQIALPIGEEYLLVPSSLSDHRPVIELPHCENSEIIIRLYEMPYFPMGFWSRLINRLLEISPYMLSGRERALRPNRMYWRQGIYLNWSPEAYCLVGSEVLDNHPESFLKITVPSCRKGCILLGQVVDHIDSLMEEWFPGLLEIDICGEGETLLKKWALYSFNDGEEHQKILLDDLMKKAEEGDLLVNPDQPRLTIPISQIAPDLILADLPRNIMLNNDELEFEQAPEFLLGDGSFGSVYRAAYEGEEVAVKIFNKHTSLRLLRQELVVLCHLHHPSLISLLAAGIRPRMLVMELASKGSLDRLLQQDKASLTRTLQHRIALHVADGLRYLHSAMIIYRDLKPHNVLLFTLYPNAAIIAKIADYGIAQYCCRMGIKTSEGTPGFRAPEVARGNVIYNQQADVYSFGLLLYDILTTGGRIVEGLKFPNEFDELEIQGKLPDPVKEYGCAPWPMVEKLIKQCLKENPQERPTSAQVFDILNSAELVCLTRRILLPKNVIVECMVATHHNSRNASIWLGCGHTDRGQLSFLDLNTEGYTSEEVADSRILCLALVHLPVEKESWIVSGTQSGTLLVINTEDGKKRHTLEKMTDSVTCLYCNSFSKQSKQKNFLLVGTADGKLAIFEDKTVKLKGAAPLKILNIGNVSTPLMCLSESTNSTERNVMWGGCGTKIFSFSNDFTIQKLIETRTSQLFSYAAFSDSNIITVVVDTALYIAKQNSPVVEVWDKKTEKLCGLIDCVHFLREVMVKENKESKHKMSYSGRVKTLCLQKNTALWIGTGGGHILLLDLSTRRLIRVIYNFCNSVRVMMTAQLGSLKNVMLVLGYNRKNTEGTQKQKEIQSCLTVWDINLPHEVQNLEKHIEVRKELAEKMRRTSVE

**Q.** For CC/C(Nc1cnn(C2CCN(C(C)C)CC2)c1)=C1/C(=O)Nc2ccc(C(=O)NC[C@H]3CCCO3)cc21 [Example 1, (R,Z)-3-(1-((1-(1-isopropylpiperidin-4-yl)-1H-pyrazol-4-yl)amino)propylidene)-2-oxo-N-((tetrahydrofuran-2-yl)methyl)indoline-5-carboxamide], which IC50 (LRRK2 kinase) is on record?
**A.** 100 to 300 nM

**Q.** And the IC50 [1]?
**A.** ≤ 100 nM

**Q.** With CC/C(Nc1ccc(N2C[C@H]3CN(C)C[C@H]3C2)cc1)=C1/C(=O)Nc2ccc(C(=O)NCC(C)C)cc21 [Example 63] as the compound, how does the IC50 [1] read?
**A.** ≤ 100 nM

**Q.** CC/C(Nc1ccc(N2C[C@H]3CN(C)C[C@H]3C2)cc1)=C1/C(=O)Nc2ccc(C(=O)NC[C@H]3CCCO3)cc21 [Example 64] was tested. Which IC50 [1] did it give?
**A.** ≤ 100 nM

**Q.** For CC/C(Nc1ccc(N2CC3(CN(C)C3)C2)cc1)=C1/C(=O)Nc2ccc(C(=O)NCC(C)C)cc21 [Example 65], which IC50 [1] is on record?
**A.** ≤ 100 nM

**Q.** With CC/C(Nc1ccc(N2CC3(CN(C)C3)C2)cc1)=C1/C(=O)Nc2ccc(C(=O)NC[C@H]3CCCO3)cc21 [Example 66] as the compound, how does the IC50 [1] read?
**A.** ≤ 100 nM

**Q.** For CC/C(Nc1ccc(N2CC3CC(C2)N3C)cc1)=C1/C(=O)Nc2ccc(C(=O)NCC(C)C)cc21 [Example 67], which IC50 [1] is on record?
**A.** ≤ 100 nM

**Q.** Which IC50 [1] does the source give for CC/C(Nc1ccc(N2CC3CC(C2)N3C)cc1)=C1/C(=O)Nc2ccc(C(=O)NC[C@H]3CCCO3)cc21 [Example 68] here?
**A.** ≤ 100 nM

**Q.** For CC/C(Nc1ccc(N2CC3CC2CN3C)cc1)=C1/C(=O)Nc2ccc(C(=O)NCC(C)C)cc21 (centres unmarked) [Example 69], which IC50 [1] is on record?
**A.** ≤ 100 nM

**Q.** Which IC50 [1] does the source give for CC/C(Nc1ccc(N2CC3CC2CN3C)cc1)=C1/C(=O)Nc2ccc(C(=O)NC[C@H]3CCCO3)cc21 (some centres unmarked) [Example 70] here?
**A.** ≤ 100 nM

**Q.** For CC/C(Nc1ccc(N2CC3CC2CN3C)cc1)=C1/C(=O)Nc2ccc(C(=O)NCC(F)(F)F)cc21 (centres unmarked) [Example 71], which IC50 [1] is on record?
**A.** ≤ 100 nM

**Q.** CC/C(Nc1ccc(N2CCN(C)CC2)nc1)=C1/C(=O)Nc2ccc(C(=O)NCC(F)(F)F)cc21 [Example 74] was tested. Which IC50 [1] did it give?
**A.** ≤ 100 nM

**Q.** Which results are given for CC/C(Nc1ccc(N2CCN(C)CC2)cn1)=C1/C(=O)Nc2ccc(C(=O)NCC(F)(F)F)cc21 [Example 75]?
**A.** IC50 (LRRK2 kinase): ≤ 100 nM; IC50 [1]: ≤ 100 nM

**Q.** Which IC50 (LRRK2 kinase) does the source give for CC/C(Nc1cnn(C)c1)=C1/C(=O)Nc2ccc(C(=O)NCC(F)(F)F)cc21 [Example 77] here?
**A.** ≤ 100 nM

**Q.** What about the IC50 [1] of the same compound?
**A.** ≤ 100 nM

**Q.** CC/C(Nc1ccc(-c2nc(C)no2)cc1)=C1/C(=O)Nc2ccc(C(=O)NCC(F)(F)F)cc21 [Example 78] was tested. Which IC50 (LRRK2 kinase) did it give?
**A.** ≤ 100 nM

**Q.** And the IC50 [1]?
**A.** 100 to 300 nM

**Q.** With CC/C(Nc1ccc(-c2cn(C)nn2)cc1)=C1/C(=O)Nc2ccc(C(=O)NCC(F)(F)F)cc21 [Example 79] as the compound, how does the IC50 [1] read?
**A.** ≤ 100 nM

**Q.** With CC/C(Nc1cnn(C2CCN(C(C)C)CC2)c1)=C1/C(=O)Nc2ccc(C(=O)NC[C@H]3CC(F)(F)CO3)cc21 [Example 80] as the compound, how does the IC50 [1] read?
**A.** ≤ 100 nM

**Q.** Which IC50 [1] does the source give for CC/C(Nc1cnn(C2CCN(C(C)C)CC2)c1)=C1/C(=O)Nc2ccc(C(=O)NCCOC(F)(F)F)cc21 [Example 82] here?
**A.** ≤ 100 nM

**Q.** CC/C(Nc1cnn(C2CCN(C(C)C)CC2)c1)=C1/C(=O)Nc2ccc(C(=O)NC[C@H]3CCCCO3)cc21 [Example 83] was tested. Which IC50 [1] did it give?
**A.** ≤ 100 nM

**Q.** How did the IC50 (LRRK2 kinase) turn out when CC/C(Nc1cnn(C2CC3(C2)CN(C)C3)c1)=C1/C(=O)Nc2ccc(C(=O)NCC(F)(F)F)cc21 [Example 84] was run?
**A.** ≤ 100 nM

**Q.** What about the IC50 [1] of the same compound?
**A.** ≤ 100 nM

**Q.** What does the source list for CC/C(Nc1ccc(N2CC3(COC3)C2)cc1)=C1/C(=O)Nc2ccc(C(=O)NCC(F)(F)F)cc21 [Example 85]?
**A.** IC50 (LRRK2 kinase): ≤ 100 nM; IC50 [1]: 100 to 300 nM

**Q.** For CC/C(Nc1cnn(C2CN(C)C2)c1)=C1/C(=O)Nc2ccc(C(=O)NCC(F)(F)F)cc21 [Example 86], which IC50 (LRRK2 kinase) is on record?
**A.** 100 to 300 nM

**Q.** What about the IC50 [1] of the same compound?
**A.** ≤ 100 nM

**Q.** For CC/C(Nc1cnn(C2CN(C)C2)c1)=C1/C(=O)Nc2ccc(C(=O)NCC(C)C)cc21 [Example 87], which IC50 [1] is on record?
**A.** ≤ 100 nM

**Q.** With CC/C(Nc1cnn(C2CN(C3CCC3)C2)c1)=C1/C(=O)Nc2ccc(C(=O)NC[C@H]3CCCO3)cc21 [Example 88] as the compound, how does the IC50 [1] read?
**A.** ≤ 100 nM

**Q.** How did the IC50 [1] turn out when CC/C(Nc1cnn(C2CN(C)C2)c1)=C1/C(=O)Nc2ccc(C(=O)NCCOC)cc21 [Example 89] was run?
**A.** 100 to 300 nM

**Q.** With CC/C(Nc1cnn(C2CN(CC)C2)c1)=C1/C(=O)Nc2ccc(C(=O)NC[C@H]3CCCO3)cc21 [Example 90] as the compound, how does the IC50 [1] read?
**A.** ≤ 100 nM

**Q.** For CC/C(Nc1cnn(C2CN(C(C)C)C2)c1)=C1/C(=O)Nc2ccc(C(=O)NC[C@H]3CCCO3)cc21 [Example 91], which IC50 [1] is on record?
**A.** ≤ 100 nM

**Q.** How did the IC50 (LRRK2 kinase) turn out when CC/C(Nc1ccc(N2CCN(C(C)C)CC2)cn1)=C1/C(=O)Nc2cc(F)c(C(=O)NCC(F)(F)F)cc21 [Example 92] was run?
**A.** 300 to 600 nM

**Q.** What about the IC50 [1] of the same compound?
**A.** ≤ 100 nM

Reference: patent US20240150368A1, “ULK INHIBITORS AND METHODS OF USE THEREOF” (Deciphera Pharmaceuticals, LLC, priority 2022, published 2024)
